In article PMC10830516 (Current Research in Structural Biology, 2024):
Square brackets hold non-standard residues; d marks the D form. Peptide text beside a SMILES is read from it. * marks the point of attachment. Sta = CC(C)C[C@H](N)[C@@H](O)CC(=O)O; Isovaleryl = CC(C)CC(=O)*

Tests used:
[1] = molecular target: PMII; conditions: cited from earlier work
[2] = molecular target: plasmepsin II (PMII) (Plasmodium falciparum, UniProt P46925); assay: Inhibition of PMII hydrolysis of Hb-based fluorogenic peptide substrate; type: biochemical, P. falciparum
plasmepsin II (PMII), sequence (P46925 125-453): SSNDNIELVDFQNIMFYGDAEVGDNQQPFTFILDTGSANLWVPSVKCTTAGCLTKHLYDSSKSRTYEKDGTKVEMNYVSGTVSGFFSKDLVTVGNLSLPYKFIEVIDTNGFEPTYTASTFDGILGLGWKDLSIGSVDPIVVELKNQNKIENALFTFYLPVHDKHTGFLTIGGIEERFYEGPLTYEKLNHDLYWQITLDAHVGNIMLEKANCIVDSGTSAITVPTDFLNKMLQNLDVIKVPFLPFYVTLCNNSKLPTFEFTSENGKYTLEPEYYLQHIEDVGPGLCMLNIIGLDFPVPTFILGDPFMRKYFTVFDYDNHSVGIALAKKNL

[3] = molecular target: plasmepsin X (PMX) (Plasmodium falciparum, UniProt Q8IAS0); assay: Inhibition of PMX hydrolysis of Rh2N fluorogenic peptide substrate; type: biochemical, P. falciparum; conditions: Ki against PMX, mature PMX, pH 5.5, 1 μM Rh2N substrate; Ki by Cheng-Prusoff
plasmepsin X (PMX), sequence (Q8IAS0 235-573): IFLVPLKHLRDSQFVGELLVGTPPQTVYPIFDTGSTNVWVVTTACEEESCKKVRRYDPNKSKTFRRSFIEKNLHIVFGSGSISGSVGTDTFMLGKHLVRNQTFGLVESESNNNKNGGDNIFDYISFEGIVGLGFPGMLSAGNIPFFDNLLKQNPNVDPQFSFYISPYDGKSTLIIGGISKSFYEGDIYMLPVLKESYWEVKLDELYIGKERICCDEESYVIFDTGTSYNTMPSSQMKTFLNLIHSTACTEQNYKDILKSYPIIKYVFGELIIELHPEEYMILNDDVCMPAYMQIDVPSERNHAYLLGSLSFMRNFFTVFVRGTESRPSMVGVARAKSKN

Structure (SMILES)	Ki ([1]; PMII complex PDB ID 1XDH, ref Silva et al., 1996) [nM]	Ki [2] [nM]	IC50 ([1]; achiral inhibitors, ref Boss et al., 2006, Prade et al., 2005) [nM]	Ki [3] [nM]
CC(C)CC(=O)N[C@H](C(=O)N[C@H](C(=O)N[C@@H](CC(C)C)[C@@H](O)CC(=O)N[C@@H](C)C(=O)N[C@@H](CC(C)C)[C@@H](O)CC(=O)O)C(C)C)C(C)C [pepstatin A] (Isovaleryl-VV[Sta]A[Sta]-OH)	0.006	–	–	–
CC(C)(C)NC(=O)[C@@H]1CN(Cc2cccnc2)CCN1C[C@@H](O)C[C@@H](Cc1ccccc1)C(=O)N[C@H]1c2ccccc2C[C@H]1O [IDV, Indinavir]	–	2400	–	–
CCCCCc1ccc(C(=O)N(Cc2ccc(-c3ccc(C(=O)N4CCCCC4)cc3)cc2)C2CCN(Cc3ccccn3)CC2)nc1 [2IGX]	–	–	54	–
Cc1c(O)cccc1C(=O)N[C@@H](CSc1ccccc1)[C@H](O)CN1C[C@H]2CCCC[C@H]2C[C@H]1C(=O)NC(C)(C)C [NFV, Nelfinavir]	–	1400	–	60000
CC(C)(C)NC(=O)[C@@H]1C[C@@H]2CCCC[C@@H]2CN1C[C@@H](O)[C@H](Cc1ccccc1)NC(=O)[C@H](CC(N)=O)NC(=O)c1ccc2ccccc2n1 [SQV, Saquinavir]	–	1000	–	44000
Cc1cccc(C)c1OCC(=O)N[C@@H](Cc1ccccc1)[C@@H](O)C[C@H](Cc1ccccc1)NC(=O)[C@H](C(C)C)N1CCCNC1=O [LPV, Lopinavir]	–	700	–	14000
